The record followed here is paper PMC6425379, “Pharmacokinetic Study and Tissue Distribution of Lorlatinib in Mouse Serum and Tissue Samples by Liquid Chromatography-Mass Spectrometry” (Journal of Analytical Methods in Chemistry, 2019).

A word on the Cmax: it is the highest concentration seen after dosing. As a reminder, the Tmax is the time from dosing to the highest level.

Read-outs that look alike come from different tables or passages of the source.

Data set [1] can be described thus: Tissue distribution of lorlatinib in mice after oral administration (LC-MS/MS). It is filed as in vivo, Kun Ming mice. As to conditions: 10 mg/kg; for concentration at 0.5 h: Kun Ming, mouse. Here is the method: (§1) All the animal-related experiments were performed in accordance with guidelines of Institutional Experimental Animal Ethical Committee. Kun Ming mice (18–20 g) were obtained from the Beijing HFK Bioscience Co., Ltd. (Beijing, China). All mice were given free access to normal diet and water during the experiment with an exception that mice were fasted for 12 h prior to drug administration.
Tissue samples were weighed, and methanol was added to tissue samples at a ratio of methanol: tissue = 2 mL: 100 mg. Subsequently, tissue samples were homogenized using a high-throughput tissue homogenizer and vortex-mixed for 3 min. Supernatant was obtained by centrifuging at 11,000 rpm for 15 min. Then, 400 μL of 40 ng/mL IS solution was added to 100 μL supernatant. After vortex-mixing, supernatant was isolated by centrifugation.
(§2) The mice were orally administered with 10 mg/kg lorlatinib. Blood and tissue samples were collected from mice at 0.5, 1, 2, 4, 8, and 24 h after administration. The blood samples were transferred into glass containers and clotted at room temperature for 1 h. Once the clot was formed, blood sample was centrifuged at 4,000 rpm for 10 min, and supernatant was collected. The serum was transferred into another tube and stored at −80°C prior to further analysis. Tissue samples were rinsed by physiological saline, and then excess physiological saline was blotted up. The tissue samples were transferred into PP plastic bags and stored at −80°C until further detection.
(§3) The pharmacokinetic parameters of lorlatinib were estimated with noncompartment model by DAS (Data Analysis System) software (version 3.0, BioGuider Co., Shanghai, China). Moment analysis was used as a noncompartmental approach to obtain various pharmacokinetic parameters. Noncompartmental approach allowed the estimation of pharmacokinetic parameters without assuming any structural properties of the pharmacokinetic behavior of lorlatinib. The area under the curve (AUC) and the first moment curve (AUMC) were calculated by using the linear trapezoidal method, which is required by FDA. The half-life (t1/2) was estimated as MRT multiplied by 0.693. Cmax was defined as maximal concentration, and Tmax was defined as the time at which the Cmax was observed. The tissue distribution was described by quantifying lorlatinib in various tissues at 0.5, 1, 2, 4, 8, and 24 h after administration. All data were summarized to calculate means and standard deviations, and then the concentration-time curve was plotted.

A short description of data set [2]: Pharmacokinetic study of lorlatinib in mouse serum after oral administration (LC-MS/MS, noncompartmental model). Particulars: mice, 10 mg/kg. It is filed as in vivo, Kun Ming mice. The method, then: as §1
In order to make all serum samples fall within the range suitable for testing, 10 μL of serum sample was diluted to 100 μL with blank serum. The diluted serum sample was evenly mixed using vortex-mixing. A mixture sample was prepared by adding 200 μL of IS working solution (10 ng/mL) to 20 μL of diluted serum sample, and the mixture was vortex-mixed for 3 min. In order to extract lorlatinib, the supernatant was obtained by centrifugation (11,000 rpm, 15 min, 4°C). Then, 100 μL of supernatant was diluted to 200 μL with purified water, and the mixture was immediately vortex-mixed for 3 min.
as §2, §3

On to `C[C@H]1Oc2cc(cnc2N)-c2c(nn(C)c2C#N)CN(C)C(=O)c2ccc(F)cc21` [Lorlatinib], for which, in data set [1] (each tissue), the “time at which the maximum concentration appeared in each tissue” value is 0.5 h. In addition, the concentration at 0.5 h turned out to be 1850 ng/g in data set [1] (brain, read-out: concentration in brain); 3670 ng/g in data set [1] (heart, read-out: concentration in heart); 5490 ng/g in data set [1] (kidney, read-out: concentration in kidney); 2900 ng/g in data set [1] (large intestine, read-out: concentration in large intestine); 31500 ng/g in data set [1] (liver, read-out: concentration in liver); 3090 ng/g in data set [1] (lung, read-out: concentration in lung). Also, the concentration at 0.5 h came out at 5410 ng/g in data set [1] (small intestine, read-out: concentration in small intestine); 2470 ng/g in data set [1] (spleen, read-out: concentration in spleen); 21600 ng/g in data set [1] (stomach, read-out: concentration in stomach). Also, the concentration at 24 h in data set [2] (Kun Ming, mouse, 24 h after administration) is 0.0209 ± 0.00107 µg/mL. For the same compound, the Cmax in data set [2] (Kun Ming, mouse, n=8, mean) was 2.71 µg/mL. Besides, the time of peak concentration (Tmax) in data set [2] (Kun Ming, mouse, n=8, mean) amounted to 0.625 h. Moreover, in data set [2] (Kun Ming, mouse, n=8, mean, read-out: t1/2z (converted)), the half-life is 3.26 h. Also, in data set [2] (mean ± SD), the maximal serum concentration is reported as 2,705.683 ± 539.779 μg/L. Besides, the “AUC(0–∞)” value in data set [2] (n=8, mean) is 16208.177 ug/L ∗ h. Moreover, the “AUMC(0–∞)” value in data set [2] (n=8, mean) came out at 78840.738 h ∗ h ∗ ug/L.
